{
  "source": "patent US5599789A",
  "about": "“Method for the treatment of tumours and sarcomas” (Amrad Corporation Limited, priority 1991, dated 1997)",
  "assay_type_in_all_cases": "cell-based, human",
  "key": {"[1]": {"system": "Ewing's Sarcoma cell line Al-8", "assay": "Colony formation in semi-solid agar cultures, Al-8 cells", "details": "Al-8, 1,000 cells, day 18", "experimental": "(§1) Tumour cells obtained from biopsy and bone marrow specimens from patients with Ewing's Sarcoma were used in these studies. Approval for this project has been obtained from the Ethics Committee of the Royal Children's Hospital.\n(§2) Single cell suspensions of tumour cells were obtained by mechanical disruption with an 18G or 21G needle or by pipetting, followed by incubation with dispase II (Boehringer) at a concentration of 1.2 units per ml for 10 minutes at 37° C. Prior to the addition to agar-medium the cells were vortexed gently to prevent clumping.\n(§3) Clonal cell lines were grown in Iscove's Modified Dulbecco's Medium (IMDM) supplemented with 10% v/v foetal calf serum (FCS; CSL Limited, Melbourne, Australia) and were passaged either weekly or twice weekly. The characteristics of the Ewing Sarcoma cell lines used herein as described below:\n(§4) Cell lines derived from the above primary cell lines (Al and Cu) are identified by an Arabic numeral (e.g. Al-1, Al-5, Al-8 or Cu-1).\n(§5) The tumour cells were immobilised in 0.3% w/v agar containing Iscove's Modified Dulbecco's Medium (IMDM) and 10% v/v FCS. […] Cultures were scored for the presence of colonies (>40 cells) or clusters (<40 cells). The number of cells plated per culture ranged from 500 to 10,000 per ml. Colonies were counted on an Olympus dissecting microscope.\n(§6) IL-1, IL-3, IL-4, IL-6, M-CSF, G-CSF, GM-CSF, Stem Cell Factor (SCF), TNFα, TGFα, TGFβ, EGF, aFGF, bFGF, NGF, IGF I, IGF II, PDGF and IFN-γ.\n(§7) The recombinant human leukaemia inhibitory factor (LIF) was obtained from AMRAD Corporation Limited, Melbourne, Australia."}, "[2]": {"system": "Ewing's Sarcoma cell line Al-1", "assay": "Colony formation in semi-solid agar cultures, Al-1 cells", "details": "day 18", "experimental": "as §1, §2, §3, §4, §5, §6, §7"}, "[3]": {"system": "Ewing's Sarcoma cell line Al (uncloned)", "assay": "Colony formation in semi-solid agar cultures, Al (uncloned) cells", "details": "Al(uncloned), 5,000 cells, day 18", "experimental": "as §1, §2, §3, §5, §6, §7"}, "Ewing's Sarcoma cells": {"system": "Ewing's Sarcoma cells", "assay": "Colony formation in agar cultures, a number of different Ewing's cell lines (summary statements)", "source_text": "as §5"}, "[4]": {"system": "Ewing's Sarcoma cell line Cu-1", "assay": "Colony formation in semi-solid agar cultures, Cu-1 cells", "details": "Cu-1, 10,000 cells, day 18", "experimental": "as §1, §2, §3, §4, §5, §6, §7"}, "[5]": {"details": "stimulus 100 ng, mean of duplicate colony counts"}},
  "data": [
    {"substance": "LIF: recombinant human leukaemia inhibitory factor (E. coli derived) from AMRAD Corporation Limited", "values": [
      {"measurement": "Colonies/Cultures", "setting": "[1]; stimulus 0.01 ng", "result": 68},
      {"measurement": "Colonies/Cultures", "setting": "[1]; stimulus 0.1 ng", "result": 29},
      {"measurement": "Colonies/Cultures", "setting": "[1]; stimulus 1 ng", "result": 23},
      {"measurement": "Colonies/Cultures", "setting": "[1]; stimulus 10 ng", "result": 6},
      {"measurement": "Colonies/Cultures", "setting": "[1]; [5]", "result": 3},
      {"measurement": "Colonies/Cultures", "setting": "[2]; Al-1, 1,000 cells, stimulus 0.01 ng", "result": 50},
      {"measurement": "Colonies/Cultures", "setting": "[2]; Al-1, 1,000 cells, stimulus 0.1 ng", "result": 39},
      {"measurement": "Colonies/Cultures", "setting": "[2]; Al-1, 1,000 cells, stimulus 1 ng", "result": 23},
      {"measurement": "Colonies/Cultures", "setting": "[2]; Al-1, 1,000 cells, stimulus 10 ng", "result": 24},
      {"measurement": "Colonies/Cultures", "setting": "[2]; Al-1, 1,000 cells, stimulus 100 ng, mean of duplicate colony counts", "result": 32},
      {"measurement": "Colonies/Cultures", "setting": "[2]; Al-1, 10,000 cells, stimulus 0.01 ng", "result": 695},
      {"measurement": "Colonies/Cultures", "setting": "[2]; Al-1, 10,000 cells, stimulus 0.1 ng", "result": 305},
      {"measurement": "Colonies/Cultures", "setting": "[2]; Al-1, 10,000 cells, stimulus 1 ng", "result": 129},
      {"measurement": "Colonies/Cultures", "setting": "[2]; Al-1, 10,000 cells, stimulus 10 ng", "result": 17},
      {"measurement": "Colonies/Cultures", "setting": "[2]; Al-1, 10,000 cells, stimulus 100 ng, mean of duplicate colony counts", "result": 18},
      {"measurement": "Colonies/Cultures", "setting": "[3]; stimulus 0.01 ng", "result": 222},
      {"measurement": "Colonies/Cultures", "setting": "[3]; stimulus 0.1 ng", "result": 205},
      {"measurement": "Colonies/Cultures", "setting": "[3]; stimulus 1 ng", "result": 160},
      {"measurement": "Colonies/Cultures", "setting": "[3]; stimulus 10 ng", "result": 10},
      {"measurement": "Colonies/Cultures", "setting": "[3]; [5]", "result": 8},
      {"measurement": "Effect on colony counts", "setting": "Ewing's Sarcoma cells; between 0.1 and 100 ng LIF per culture, agar cultures, different Ewing's cell lines", "result": "able to significantly reduce colony counts"},
      {"measurement": "Magnitude of colony reduction relative to other growth factors tested", "setting": "Ewing's Sarcoma cells; culture of Ewing's Sarcoma cells", "result": "greater than those induced by other growth factors tested"},
      {"measurement": "Number of colonies compared to untreated controls", "setting": "Ewing's Sarcoma cells; culture of Ewing's Sarcoma cells, dose-dependent", "result": "significantly reduces the number of colonies"},
      {"measurement": "Colonies/Cultures", "setting": "[4]; stimulus 0.01 ng", "result": 542},
      {"measurement": "Colonies/Cultures", "setting": "[4]; stimulus 0.1 ng", "result": 430},
      {"measurement": "Colonies/Cultures", "setting": "[4]; stimulus 1 ng", "result": 192},
      {"measurement": "Colonies/Cultures", "setting": "[4]; stimulus 10 ng", "result": 97},
      {"measurement": "Colonies/Cultures", "setting": "[4]; [5]", "result": 125}
    ]}
  ]
}
